Km data for five substances are collected here from article PMC6816246, “A Novel Substrate Radiotracer for Molecular Imaging of SIRT2 Expression and Activity with Positron Emission Tomography” (Molecular imaging and biology, 2018).

The assay addresses T1, SIRT2 (Homo sapiens, UniProt Q8IXJ6).
T1 sequence (Q8IXJ6 2-389): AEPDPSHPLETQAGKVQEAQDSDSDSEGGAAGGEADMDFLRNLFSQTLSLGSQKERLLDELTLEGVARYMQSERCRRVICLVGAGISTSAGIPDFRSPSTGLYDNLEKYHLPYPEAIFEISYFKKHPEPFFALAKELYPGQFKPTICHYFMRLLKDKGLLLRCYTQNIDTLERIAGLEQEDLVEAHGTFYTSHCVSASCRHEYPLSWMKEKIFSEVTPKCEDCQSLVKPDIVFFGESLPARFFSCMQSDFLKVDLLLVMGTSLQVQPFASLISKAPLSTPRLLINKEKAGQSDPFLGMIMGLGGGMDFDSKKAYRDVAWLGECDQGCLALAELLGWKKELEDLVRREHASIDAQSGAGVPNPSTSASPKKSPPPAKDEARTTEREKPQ
Briefly: fluorogenic enzyme kinetics with recombinant SIRT2 (Km). Format: biochemical.

Take Boc-Lys(3-F-propanoyl)-AMC [compound 1]: the Michaelis-Menten constant (Km) – broadly, the concentration of substrate that gives half-maximal velocity – came to 55.5 µM.

For Boc-Lys(6-F-hexanoyl)-AMC [compound 2], the Km was determined as 44.9 µM.

For the substance Boc-Lys(10-F-decanoyl)-AMC [compound 3], the Michaelis constant (Km) came to 18 µM.

As for “Boc-Lys(12-F-dodecanoyl)-AMC [compound 4]”, the Km came out at 8.07 µM.

As for Boc-Lys(myristoyl)-AMC [compound 5], the Km worked out at 2.36 µM.
